Results on 24 compounds are retold here after US5773437A, “Alkylenediamine derivatives” (Nippon Chemiphar Co., Ltd., priority 1994, dated 1998).

Data set [1] in a line: Mouse acute toxicity LD50 (i.v.), Probit method. The conditions noted are these: calculated by Probit method; for LD50: in vivo, iv. It is filed as in vivo. An excerpt: The results seen in Table 4 clearly indicate that the compound of the invention is effective in relieving urinating contraction. Further, the toxicity of the compound is set forth in Table 4 in terms of LD50 (mg/kg) calculated by Probit method.

The test system of data set [2] is bladder (urinating contraction). Briefly: Period of inhibition of rhythmic bladder contraction (urinating contraction) in urethane-anesthetized rats. The data set is classed as in vivo, rat (Wistar strain, male). Conditions: rat, saline control 1.6 min.
Protocol: The compound of the invention was evaluated in urinating contraction of bladder by the following test method.
A male rat (Wistar strain) was fixed on his back under urethane anesthesia (1.5 g/kg, S.C.). A tracheal cannula was inserted into the rat to respire easily, and its hypogastrium was subjected to median dissection for exposing its bladder. A small opening was made on the top of the bladder to remove urine. To the bladder was inserted a polyethylene cannula. The bladder system was made to closed system by ligating urethra and ureter.
A physiological saline was injected into the bladder of rat at a rate of 0.05 mL/min. using a continuous injector so as to cause periodical urinating contraction. The intravesical pressure of the bladder was measured by means of a pressure transducer. The measured value was recorded on a pen-writing recorder. The compound to be tested was dissolved in a physiological saline and administered into the femoral vein using the polyethylene cannula.
The action for relieving urinating contraction was evaluated by measuring a period of time during which the rhythimic bladder contraction was inhibited (period of contraction inhibition).
The compounds tested were those obtained in the working examples.
Setting [3] is: 6 mg/kg i.v., Hydrochloride, 6 mg/kg.
Setting [4] is: 6 mg/kg i.v., Fumarate, 6 mg/kg.

The structures appear in SMILES notation. Where a name gives a salt, the structure may show the parent alone.

On to `Cl.O=C1CN(C(CCN2CCOCC2)c2ccccc2)S(=O)(=O)c2ccccc21` (single isomer, unassigned; (+)) [Example 20[C]] [(+)-2-(3-Morpholino-1-phenylpropyl)-2H-1,2-benzothiazin-4(3H)-one 1,1-Dioxide Hydrochloride], for which, in data set [1] (Hydrochloride), the “Mouse LD50” value is reported as 180 mg/kg. In addition, in data set [2] (setting [3]), the “Period of Contraction Inhibition” value stood at 6.0 min.
For `O=C(O)/C=C/C(=O)O.O=C1c2ccccc2CS(=O)(=O)N1C(CCN1CCOCC1)c1ccccc1` (single isomer, unassigned; (+)) [Example 24[C]] [(+)-3-(3-Morpholino-1-phenylpropyl)-1H-2,3-benzothiazin-4(3H)-one 2,2-Dioxide Fumarate], in data set [1] (Fumarate), the “Mouse LD50” value was 167 mg/kg. The “Period of Contraction Inhibition” value in data set [2] (setting [4]) was found to be 0.7 min.
`Cl.O=C1CN(C(CCN2CCOCC2)c2ccccc2)S(=O)(=O)c2ccccc21` (single isomer, unassigned; (-)) [Example 20[B], (-)-2-(3-Morpholino-1-phenylpropyl)-2H-1,2-benzothiazin-4(3H)-one 1,1-Dioxide Hydrochloride]: the LD50 in data set [1] was 140 mg/kg.
For the compound `Cl.O=C1CN(C(CCN2CCOCC2)c2ccccc2)S(=O)(=O)c2ccccc21` (single isomer, unassigned; (-)) [Example 20[B]] [(-)-2-(3-Morpholino-1-phenylpropyl)-2H-1,2-benzothiazin-4(3H)-one 1,1-Dioxide Hydrochloride], the “Period of Contraction Inhibition” value in data set [2] (setting [3]) was determined as 0.4 min.
Take `O=C(O)/C=C/C(=O)O.O=C1c2ccccc2CS(=O)(=O)N1C(CCN1CCOCC1)c1ccccc1` (single isomer, unassigned; (-)) [Example 24[B]] [(-)-3-(3-Morpholino-1-phenylpropyl)-1H-2,3-benzothiazin-4(3H)-one 2,2-Dioxide Fumarate]: the “Mouse LD50” value in data set [1] (Fumarate) was 32 mg/kg. Moreover, the “Period of Contraction Inhibition” value in data set [2] (setting [4]) was determined as 8.5 min.
Regarding `Cl.O=C1CN(CCCN2CCC(Oc3ccccc3)CC2)S(=O)(=O)c2ccccc21` [Example 1, 2-[3-(4-Phenoxypiperidino)propyl]-2H-1,2-benzothiazin-4(3H)-one 1,1-dioxide Hydrochloride], the “Period of Contraction Inhibition” value in data set [2] (1 mg/kg i.v.) is 2.8 min.
As to `Cl.O=C1CN(CCCN2CCC(OCc3ccccc3)CC2)S(=O)(=O)c2ccccc21` [Example 2, 2-[3-(4-Benzyloxypiperidino)propyl]-2H-1,2-benzothiazin-4(3H)-one 1,1-Dioxide Hydrochloride], the “Period of Contraction Inhibition” value in data set [2] (8 mg/kg i.v.) amounted to 16 min.
On the same count and under the same terms, under `O=C(O)/C=C/C(=O)O.O=C1c2ccccc2CS(=O)(=O)N1CCCN1CCC(Cc2ccccc2)CC1` [Example 3, 3-[3-(4-Benzylpiperidino)propyl]-1H-2,3-benzothiazin-4(3H)-one 2,2-Dioxide Fumarate] stands 2 min.
As to `Cl.O=C1CN(CCCN2CCC(Cc3ccccc3)CC2)S(=O)(=O)c2ccccc21` [Example 10, 2-[3-(4-Benzylpiperidino)propyl)-2H-1,2-benzothiazin-4(3H)-one 1,1-Dioxide Hydrochloride], in data set [1], the LD50 is 3 mg/kg. Further, in data set [2] (8 mg/kg i.v.), the “Period of Contraction Inhibition” value came to 14.5 min.
Taken in the same sequence, the figures for `CCCCN(CCCN1CC(=O)c2ccccc2S1(=O)=O)Cc1ccccc1.Cl` [Example 11, 2-[3-(N-Benzyl-N-butylamino)propyl]-2H-1,2-benzothiazin-4(3H)-one 1,1-Dioxide Hydrochloride] were 37 mg/kg and 3.9 min.
Take `Cl.O=C1CN(CCCN2CCN(C(c3ccccc3)c3ccccc3)CC2)S(=O)(=O)c2ccccc21` [Example 12, 2-[3-(4-Diphenylmethyl-1-piperazinyl)propyl]-2H-1,2-benzothiazin-4(3H)-one 1,1-Dioxide Hydrochloride]: the “Period of Contraction Inhibition” value in data set [2] (8 mg/kg i.v.) is 2.5 min.
For the compound `Cl.O=C1CN(CCN2CCC(Cc3ccccc3)CC2)S(=O)(=O)c2ccccc21` [Example 13, 2-[2-(4-Benzylpiperidino)ethyl]-2H-1,2-benzothiazin-4(3H)-one 1,1-Dioxide Hydrochloride], in data set [2] (8 mg/kg i.v.), the “Period of Contraction Inhibition” value is 18 min.
Take `Cl.O=C1CN(CCCN2CCN(Cc3ccccc3)CC2)S(=O)(=O)c2ccccc21` [Example 14, 2-[3-(4-Benzyl-1-piperazinyl)propyl]-2H-1,2-benzothiazin-4(3H)-one 1,1-Dioxide Hydrochloride]: in data set [1], the 50% lethal dose (LD50) is 17 mg/kg. Moreover, in data set [2] (8 mg/kg i.v.), the “Period of Contraction Inhibition” value is 12.7 min.
Taken in the same sequence, the figures for `O=C1CN(CCCN2CCc3ccccc3C2)S(=O)(=O)c2ccccc21` [Example 15, 2-[3-[2-(1,2,3,4-Tetrahydroisoquinolyl)]propyl]-2H-1,2-benzothiazin-4(3H)-one 1,1-Dioxide Hydrochloride] were 23 mg/kg and 4.7 min.
`Cl.O=C1CN(C(CCN2CCOCC2)c2ccccc2)S(=O)(=O)c2ccccc21` (stereo not drawn) [Example 20[A], 2-(3-Morpholino-1-phenylpropyl)-2H-1,2-benzothiazin-4(3H)-one 1,1-Dioxide Hydrochloride]: in data set [1], the median lethal dose (LD50) was more than 120 mg/kg. Further, the “Period of Contraction Inhibition” value in data set [2] (12 mg/kg i.v.) was found to be 9.7 min.
`Cl.O=C1CN(C(CCN2CCSCC2)c2ccccc2)S(=O)(=O)c2ccccc21` (stereo not drawn) [Example 21, 2-(1-Phenyl-3-thiomorpholinopropyl)-2H-1,2-benzothiazin-4(3H)-one 1,1-Dioxide Hydrochloride]: the median lethal dose (LD50) in data set [1] is more than 100 mg/kg. The “Period of Contraction Inhibition” value in data set [2] (10 mg/kg i.v.) was 7.0 min.
As to `O=C(O)/C=C/C(=O)O.O=C1c2ccccc2CS(=O)(=O)N1C(CCN1CCOCC1)c1ccccc1` (stereo not drawn) [Example 24[A], 3-(3-Morpholino-1-phenylpropyl)-1H-2,3-benzothiazin-4(3H)-one 2,2-Dioxide Fumarate], the median lethal dose (LD50) in data set [1] was 62 mg/kg. Besides, the “Period of Contraction Inhibition” value in data set [2] (12 mg/kg i.v.) stood at 5.6 min.
On to `CS(=O)(=O)O.O=C1c2ccccc2CS(=O)(=O)N1C(CCN1CCSCC1)c1ccccc1` (stereo not drawn) [Example 26, 3-(1-Phenyl-3-thiomorpholinopropyl)-1H-2,3-benzothiazin-4(3H)-one 2,2-Dioxide Mesylate], for which the LD50 in data set [1] was 37 mg/kg. Also, the “Period of Contraction Inhibition” value in data set [2] (4 mg/kg i.v.) stood at 7.3 min.
`N#CC1(c2ccccc2)CCN(CCCN2CC(=O)c3ccccc3S2(=O)=O)CC1.O=C(O)/C=C/C(=O)O` [Example 32, 2-[3-(4-Cyano-4-phenylpiperidino)propyl]-2H-1,2-benzothiazin-4(3H)-one 1,1-Dioxide Fumarate]: in data set [2] (8 mg/kg i.v.), the “Period of Contraction Inhibition” value was 6 min.
For `N#CC1(c2ccccc2)CCN(CCC(c2ccccc2)N2CC(=O)c3ccccc3S2(=O)=O)CC1.O=C(O)/C=C/C(=O)O` (stereo not drawn) [Example 34, 2-[3-(4-Cyano-4-phenylpiperidino)-1-phenylpropyl]-2H-1,2-benzothiazin-4(3H)-one 1,1-Dioxide Fumarate], in data set [2] (8 mg/kg i.v.), the “Period of Contraction Inhibition” value stood at 3 min.
Consider `O=C1c2ccccc2S(=O)(=O)N1C(CCN1CCSCC1)c1ccccc1` (stereo not drawn) [Example II, 2-(1-Phenyl-3-thiomorpholino)propyl-1,2-benzisothiazol-3(2H)-one 1,1-Dioxide Fumarate], for which the 50% lethal dose (LD50) in data set [1] was 47 mg/kg. The “Period of Contraction Inhibition” value in data set [2] (5 mg/kg i.v.) came out at 3.8 min.
The corresponding values for `O=C1c2ccccc2S(=O)(=O)N1C(CCN1CCOCC1)c1ccccc1` (stereo not drawn) [Example IX, 2-(3-Morpholino-1-pheny)propyl-1,2-benzisothiazol-3(2H)-one 1,1-Dioxide Fumarate] are 48 mg/kg and 10.7 min.
For `CC(=O)N1CCN(CCC(c2ccccc2)N2C(=O)c3ccccc3S2(=O)=O)CC1` (stereo not drawn) [Example XI, 2-[3-(4-Acetyl-1-piperazinyl)-1-pheny]propyl-1,2-benzisothiazol-3(2H)-one 1,1-Dioxide Fumarate], the LD50 in data set [1] was 170 mg/kg. For the same compound, the “Period of Contraction Inhibition” value in data set [2] (17 mg/kg i.v.) amounted to 6.0 min.
As for `O=C1c2ccccc2S(=O)(=O)N1C(CCN1CCN(c2ncccn2)CC1)c1ccccc1` (stereo not drawn) [Example XII, 2-[1-Phenyl-3-[4-(2-pyrimidinyl)-1-piperazinyl]propyl-1,2-benzisothiazol-3(2H)-one 1,1-Dioxide Hydrochloride], the LD50 in data set [1] is more than 200 mg/kg. For the same compound, in data set [2] (20 mg/kg i.v.), the “Period of Contraction Inhibition” value worked out at 3.5 min.

The LD50 is the dose expected to kill half of the subjects tested.
